Here are results for one substance from patent US8551470B2, “Use of substance P for mobilization of Mesenchymal stem cells or proliferation of Mesenchymal stem cells and for wound healing or facilitating wound healing” (Korea Institute of Radiological & Medical Sciences, priority 2004, dated 2013).

The test system of assay [1] is MMP-1, MMP-2, MMP-9, MT1-MMP, TIMP-1, TIMP-2. The assay is described as follows: Immunoprecipitation of 35S-methionine labeled MMPs and TIMPs from MSCs. The following applies: human MSCs, Substance-P 0-100 nM, 35S-methionine labeling 16 h. Type of assay: cell-based. As to the method:
The effect of Substance-P on the biosynthesis of MMPs (matrix metalloproteinases) and their inhibitors was examined by immunoprecipitation of the culture medium and the cell lysates of MSCs which were labeled with ^35S-methionine. The MSCs were treated with Substance-P and labeled with 50 μCi/ml ^35S-methionine (Amersham) for 16 h. The cell lysate was prepared with a lysis buffer (1% of NP40, 10 mM Tris-HCl, pH 7.4, 150 mM NaCl, 1 mM EDTA, 2 mM PMSF). For immunoprecipitation of the secreted MMP-1, MMP-2, MMP-9, TIMP-1 and TIMP-2, the culture supernatants were incubated with their specific antibodies [anti-MMP-1 (chemicon; Cat #MAB3307, 1:100), anti-MMP-2 (Chemicon; Cat #MAB13405, 1:200), anti-MMP-9 (Calbiochem; Cat #444236, 1:100), anti-TIMP-1 (Calbiochem; Cat #IM32L, 1:250) and anti-TIMP-2 (Calbiochem; Cat #IM11L, 1:250)] for 2 h under constant rotation, and the antibodies were collected by protein-G sepharose-4B (Biorad). The pellet was washed three times with an immunoprecipitation buffer ([…], 50 mM Tris-HCl pH 7.4, 0.2% SDS and 0.5% Nadeoxycholate), once with a high salt buffer (10 mM Tris-HCl, pH 7.4, 0.5 M NaCl), and once with a low salt buffer (10 mM Tris-HCl, pH 7.4). After SDS-PAGE, the gel was soaked in 2 M sodium salicylate, dried, and exposed to the X-ray film for 2 weeks. […]

For assay [2], the system named is human MSCs. Briefly: MSC migration and collagen degradation on 3-D collagen gel. Type of assay: cell-based. The note with it: human MSCs on 3-D collagen gel, Substance-P in bottom dishes (0-100 nM), 72 h. An excerpt:
In order to determine the mechanism of Substance-P in the mobilization of MSCs, which are strongly attached onto the endosteal surface of bone marrow, Substance-P was first examined to determine whether it stimulates migration of human MSCs cultured on top of the 3-D collagen gel. The type I collagen gel matrix was made within a 12 mm millicell membrane (milipore: 12-μm pore size) according to the manufacturer's specifications (Nitta gelatin, Japan) and coated overnight with type IV collagen (Nitta). The MSCs were plated on top of the collagen gel, and the outer chamber was filled with Substance-P-containing MSCGM (Cambrex Bio Science). Clearance of the collagen gel was monitored by using the phase contrast microscopy (Olympus). At 72 h, the millicell insert and outer dishes were fixed and stained with hematoxylin, and then the culture supernatants were stored for gelatin zymography.

Assay [3] relates to β-catenin. Briefly: Immunofluorescence staining of β-catenin localization in MSCs. Type of assay: cell-based. The note with it: human MSCs, 100 nM. On the procedure:
In order to determine whether Substance-P affects the self-renewal capacity of human MSCs, β-catenin, which is the downstream effecter of the wnt signaling pathway, was examined. MSCs (Cambrex Bio Science) were plated in the density of 1×10^4/well, and incubated with MSCGM (Cambrex Bio Science). After adhesion of the cells, they were treated with Substance-P in each concentration, and incubated for 16 h and 48 h. The MSCs were fixed with 4% of paraformaldehyde and permeabilized with 0.3% of Triton X-100. After blocking nonspecific antigen with 20% normal goat serum which was diluted in phosphate buffer for 1 h, the coverslips were incubated with antibodies against β-catenin (BD Biosciencs; Cat #6010153, 1:100) for 90 min, and then with the FITC-conjugated secondary antibodies for 60 min(Vector). The cells were counterstained with DAPI, and examined by using confocal microscopy (Leica).

Assay [4] relates to VEGF and fibronectin. Briefly: ELISA and Western blot analysis of VEGF and fibronectin in MSC culture supernatants. It is filed as cell-based, human. On the procedure: ELISA and Western blot analysis of fibronectin and VEGF, which are down stream genes of Tcf/β-catenin, were carried out.
The test system of assay [5] is human MSCs. The assay is described as follows: Viable cell count (triphan blue exclusion) of MSCs after Substance-P treatment. It is filed as cell-based. The note with it: 3 day. An excerpt:
At 3 day after the treatment of Substance-P, the triphan blue excluded viable cells were counted.

Assay [6] has as its system MMP-9 and MMP-2. The assay is described as follows: Gelatin zymography of MSC culture supernatants. It is filed as cell-based. The following applies: culture medium of human MSCs on 3-D collagen gel, Substance-P 0-100 nM. As to the method: The culture supernatants were examined for gelatin zymography. The eletrophoresis was performed for the culture supernatant in which sample buffer without mercaptoethanol was added thereto, in 8% SDS-PAGE. The gel was renatured with 2.5% of Triton x-100 in order to remove the SDS, and then was incubated with a developing buffer (50 mM Tris-HCl, pH 7.2 100 mM NaCl, 20 mM CaCl2) at 37° C. overnight, and the gel was stained with Coomassie blue.

Assay [7] concerns cornea wound. The assay is described as follows: Corneal alkali burn rabbit model with intravenous injection of Substance-P. Type of assay: in vivo. An excerpt:
New Zealand white rabbits weighing 2-3 kg were purchased from Samtako BioKorea. All these animal experiments were approved by Ethical Committee, Korea Institute of Radiological and Medical Sciences, and Chung-Ang University, and conducted in accordance with the ARVO Statement for the Use of Animal in Ophthalmic and Vision Research. For the alkali burn, the rabbit eyes were placed in contact with a 6 mm piece of circular Whatman filter paper soaked in 1N NaOH for 30 seconds. At 1, 3, 5, 7, 10 and 14 day after the alkali burn, rabbit eyes and whole blood were isolated.
Thus, it was examined whether or not Substance-P only can stimulate corneal wound healing. To estimate the effect of Substance-P intravenous injection on acceleration of the wound healing, Substance-P at dosage 6.5 ug/kg was intravenously injected firstly immediately after the injury, and then secondly on 2nd day after the wound. At day 7 after the intravenous injection, cornea recovery was estimated by naked eyes with taking digital picture. […] The intravenous injection of Substance-P strongly expedited the cornea healing as shown by clearance of corneal opaqueness and disappearance of hemorrhagic area, compared with the non-injected control rabbit.
To observe the wound healing degree in the histological level, rabbit eyes were isolated and fixed, and then, H&E staining and immunostaining for CD29 were carried out.

Where [8] appears, read: Substance-P 6.5 ug/kg i.v. twice, vs non-injected.

Turning to Substance-P, in assay [1], the “biosynthesis of MMP-1, MMP-2, MMP-9, and MT1-MMP” value is given as “stimulated in a dose dependent manner”; the “biosynthesis of inhibitors TIMP-1 and TIMP-2” value is listed as “inhibited”. The “degradation of the collagen gel and MSC migration” value in assay [2] is “stimulated degradation of the collagen gel and MSC migration in a dose dependent manner”. For the same substance, in assay [3] (16 h after Substance-P treatment), the “nuclear localization of β-catenin” value is “only a small number of MSCs at 100 nM showed nuclear localization of β-catenin”. In addition, the “nuclear translocation of β-catenin” value in assay [3] (48 h after Substance-P treatment) was “all the MSCs showed nuclear translocation of β-catenin”. Besides, the “fibronectin induction (Western blot)” value in assay [4] (culture supernatant of Substance-P treated human MSCs) is reported as “induced”. In assay [4] (culture supernatants of Substance-P treated human MSCs), the “VEGF induction (ELISA)” value is given as “induced”. Also, the “number of viable cells compared with the control group” value in assay [5] (1 nM Substance-P) is given as 1.7 times. In assay [5] (10 nM Substance-P), the “number of viable cells compared with the control group” value amounted to 2.1 times. For the same substance, in assay [5] (100 nM Substance-P), the “number of viable cells compared with the control group” value was determined as 2.2 times. In addition, in assay [6], the “MMP-9 and MMP-2 activities (gelatin zymography)” value is “strong induction of MMP-9 and MMP-2 activities”. Further, the “corneal regeneration (naked eye, digital picture)” value in assay [7] (Substance-P 6.5 ug/kg i.v. immediately after injury and on 2nd day, day 7, vs non-injected control) is given as “much faster”. Further, in assay [7] (setting [8]), the “CD29 immunostaining of cornea” value was “CD 29+cells of small and spindle shape inside of collagen fibers”; the “wound healing degree in histology (H&E staining)” value is “full thickness coverage of epithelium, well organized vasculature, and ordered array of dense collagen bundles”. Further, the “healing rate (histological observation during the entire period)” value in assay [7] (Substance-P i.v. vs control group) is “speeded up the healing rate faster than the control group”.
